These are literature values, as cited in patent US8470873B2, “Vitamin E succinate stabilized pharmaceutical compositions, methods for the preparation and the use thereof” (Mast Therapeutics, Inc., priority 2006, dated 2013).

For data set [1] the following is noted: hydrolysis.

`CC(=O)O[C@H]1C(=O)[C@@]2(C)[C@H]([C@H](OC(=O)c3ccccc3)[C@]3(O)C[C@H](OC(=O)[C@H](O)[C@@H](NC(=O)c4ccccc4)c4ccccc4)C(C)=C1C3(C)C)[C@]1(OC(C)=O)CO[C@@H]1C[C@@H]2O` [paclitaxel]: the solubility in water entry was “insoluble”.

Take `CC(=O)O[C@@]12CO[C@@H]1C[C@H](O)[C@@]1(C)C(=O)[C@H](O)C3=C(C)[C@@H](OC(=O)[C@H](O)[C@@H](NC(=O)OC(C)(C)C)c4ccccc4)C[C@@](O)([C@@H](OC(=O)c4ccccc4)[C@H]21)C3(C)C` [Docetaxel, (2R,3S)-N-carboxy-3-phenylisoserine,N-tert-butyl ester, 13-ester with 5β-20-epoxy-1,2α-,4,7β,10β,13α-hexahydroxytax-11-en-9-one 4-acetate 2-benzoate, trihydrate]: the “stability in the presence of water” value in data set [1] is listed as “very unstable”.
